# Results published in patent publication USRE30511E, “Imidazo[1,5-d]-as-triazine-4(3H)-ones and thiones” (American Cyanamid Company, priority 1979, dated 1981).
# Columns and labels:
# [1] = test system: Mouse Skin Phosphodiesterase; assay: Mouse skin phosphodiesterase (PDE) inhibition test; format: biochemical, Hairless mice; design: key: Active: A compound is considered active if it inhibits more than theophylline, that is, to 50% of control at 1 mM concentration of compound, or to 80% of control of 0.05 mM concentration of compound; conditions: 10 ug./ml. final concentration; 30° C. for 15 minutes
# [2] = test system: Monkey Lung Cyclic AMP Phosphodiesterase; assay: Monkey lung phosphodiesterase inhibition test; format: biochemical, African green monkeys; conditions: usually 1 mM or 0.1 mM; pH 7.4, 25° C. for 20 minutes
# Description: Lung parenchyma of African green monkeys is homogenized in a Waring blender and centrifuged at 40,000×gravity for 20 minutes. The supernatant is brought to 70% saturation of ammonium sulfate, centrifuged and the pellet redissolved and dialysed, before aliquoting and storage at --20° C.
# Phosphodiesterase is assayed by the method of Thompson and Appleman, ibid. An assay tube contains a 0.4 ml. solution of the following: 45 mM tris-HCl buffer, pH 7.4, […], 0.1 mM dithioerythritol, 10^-6 M cyclic AMP, 0.1 uCi [^3 H]-cyclic AMP, and test compound at the desired concentration (usually 1 mM or 0.1 mM). Compounds not readily soluble in water are dissolved at 40 times the desired concentration in methanol, and diluted 20 times with water. If the compound is not dissolved at this time, it is suspended by sonication before being diluted 1:2 into the assay tube. In this case the activity of the enzyme in the presence of the compound is compared to a solvent control (2.5% methanol), although the solvent alone has negligible effect. The reaction is initiated by addition of enzyme and proceeds at 25° C. for 20 minutes. It is terminated by incubation at 100° C. for 2 minutes. The tubes are cooled to 25° C., 0.8 ug of 5'-nucleotidase (Crotolu adamantus toxin) is added to each and the tubes incubated at 25° C. for 30 minutes. A 1 milliliter suspension of Bio-Rad Labs. AGIX8 (about 0.5 ml. of settled resin) is added, the tubes centrifuged at 900×gravity for 10 minutes and an aliquot of supernatant removed for scintillation counting. The inhibition by the test compound is calculated as: [formula] where `compound` is the cpm in the presence of compound, `control` is the cpm in the absence of compound, and `blank` is the cpm in the absence of enzyme. […] For this reason, control tubes which contained [^3 H]-AMP instead of [^3 H]-cyclic AMP are run in parallel. A correction of the apparent phosphodiesterase activity is made for the rare compound which inhibited the hydrolysis of AMP.
# [3] = Dispersion of aerosol suspension on warming after storage; format: physicochemical; conditions: aerosol suspension in dichlorodifluoromethane with sorbitan trioleate, sonified
# Description: The active ingredient and sorbitan trioleate are placed in a beaker and the dichlorodifluoromethane is added at -40° C. whereupon a suspension is formed. The mixture is sonified, that is, treated with a Sonifier, manufactured by the Branson Sonic Power Co. of Danbury, Conn., as model LS-75 at a current input of 9 amperes for 2 minutes. Additional cold dichlorodifluoromethane is added as necessary to keep the volume at 100 ml. The mixture is uniformly dispersed, and has increased stability resulting from the sonification. Each of six 19 ml. stainless steel containers are filled with 15 ml. of the cold mixture, then valves are inserted and sealed in place.
SMILES,Mouse Skin Phosphodiesterase (A) [1],Monkey lung phosphodiesterase inhibition (B) [2],dispersion of the aerosol suspension [3]
"Cc1nc(C)n2c(=O)[nH]ncc12 [6,8-Dimethyl-imidazo[1,5-d]-as-triazin-4(3H)-one]",Active,Active,–
"Cc1nc(C)n2c(=S)[nH]ncc12 [6,8-Dimethyl-imidazo[1,5-d]-as-triazine-4-(3H)-thione]",Active,–,–
"Cc1nc(Cc2ccccc2)n2c(=O)[nH]ncc12 [6-Benzyl-8-methyl-imidazo[1,5-d]-as-triazin-4(3H)-one]",Active,–,–
"Cc1nc(Cc2ccccc2)n2c(=S)[nH]ncc12 [6-Benzyl-8-methyl-imidazo[1,5-d]-as-triazine-4(3H)-thione]",Active,Active,–
"O=c1[nH]ncc2cnc(Cc3ccccc3)n12 [6-Benzyl-imidazo[1,5-d]-as-triazin-4(3H)-one]",Active,–,–
"O=c1[nH]ncc2cnc(-c3ccccc3)n12 [6-Phenyl-imidazo[1,5-d]-as-triazin-4(3H)-one]",Active,–,–
"CCCc1ncc2cn[nH]c(=O)n12 [6-n-Propyl-imidazo[1,5-d]-as-triazin-4(3H)-one]",Active,–,–
"CCCc1ncc2cn[nH]c(=S)n12 [6-n-Propyl-imidazol[1,5-d]-as-triazine-4(3H)-thione]",Active,Active,–
"CCCOc1ccccc1-c1ncc2cn[nH]c(=O)n12 [6-o-Propoxyphenyl-imidazo[1,5-d]-as-triazine-4(3H)-one]",Active,–,–
"Cc1nc(C(C)(C)C)n2c(=O)[nH]ncc12 [6-tert-Butyl-8-methyl-imidazo[1,5-d]-as-triazin-4(3H)-one]",Active,Active,–
"CC(C)(C)c1ncc2cn[nH]c(=O)n12 [6-tert-Butyl-imidazo[1,5-d]-as-triazin-4(3H)-one]",Active,–,–
"O=c1[nH]ncc2c(Br)nc(-c3ccccc3)n12 [8-Bromo-6-phenyl-imidazo[1,5-d]-as-triazin-4(3H)-one]",Active,Active,–
"O=c1[nH]ncc2c(Cl)nc(-c3ccccc3)n12 [8-Chloro-6-phenyl-imidazo[1,5-d]-as-triazin-4(3H)-one]",Active,Active,–
"CCCc1nc(C)c2cn[nH]c(=S)n12 [8-Methyl-6-n-propyl-imidazolo[1,5-d]-as-triazine-4(3H)-thione]",Active,Active,–
"Cc1nc(-c2ccccc2)n2c(=O)[nH]ncc12 [8-Methyl-6-phenyl-imidazo[1,5-d]-as-triazin-4(3H)-one]",Active,Active,–
"Cc1nc(-c2ccccc2)n2c(=S)[nH]ncc12 [8-Methyl-6-phenyl-imidazo[1,5-d]-as-triazine-4-(3H)-thione]",Active,–,–
"Cc1ncn2c(=O)[nH]ncc12 [8-Methyl-imidazo[1,5-d]-as-triazin-4(3H)-one]",Active,–,–
"Cc1ncn2c(=S)[nH]ncc12 [8-Methyl-imidazo[1,5-d]-as-triazine-4-(3H)-thione]",Active,–,–
"CC(C)c1nc(Cl)c2cn[nH]c(=S)n12 [8-chloro-6-isopropyl-imidazo[1,5-d]-as-triazine-4(3H)-thione]",–,–,remains dispersed
